Measured values as given in patent publication US20100055179A1, “Composition of and Method for Preparing Orally Disintegrating Tablets Containing a High Dose of Pharmaceutically Active Ingredients” (MALLINCKRODT INC., priority 2006, published 2010).

Key:
Type in all cases: physicochemical
[1] = Hardness test (tablet crushing load, Varian VK-200)
Description: (1) Hardness test-The ODT tablet crushing load, which is the force (kilopond, kP) required to break a tablet into halves by compression in the diametral direction, was measured with a hardness tester (Varian Hardness Tester, VK-200).

[2] = Friability test (USP <1216>)
Description: (2) Friability test-The friability test method was performed by a Varian Friabilator according to the USP tablet friability method described in <1216> Tablet Friability of the General chapters describing General Test Assays.

[3] = In vitro disintegration test (USP Test No. 701)
Description: (3) In vitro disintegration test-The disintegration time of the tablets was determined according to U.S. Pharmacopeia, Test No. 701.

[4] = Wetting test (simulated in vivo disintegration time)
Description: (4) Wetting Test-One Whatman filter disc (21 mm in diameter) was placed in each well of a Corning 12-well polystyrene microplate (22 mm in diameter). One and a half […] of Sensient Blue #1 dye solution (similar to in vivo conditions-tongue surface) was then added into each well. An ODT tablet was carefully placed on the surface of the wet paper disc in each well using a pair of forceps, tablet face flat on the filter paper. Finally, the total wetting time was recorded as the time required for the blue dye solution to cover the surface of the tablet as simulated in vivo disintegration time.

[5] = 0.3% (w/w) APAP as COMPAP with Formulation A granules, Example 4
[6] = 0.3% (w/w) regular APAP blended with Formulation A granules, 400 mg tablet, Example 2
[7] = 0.3% (w/w) regular APAP wet-granulated with Formulation A, Example 3
[8] = 1.0% (w/w) APAP as COMPAP with Formulation A granules, Example 4
[9] = 1.0% (w/w) regular APAP blended with Formulation A granules, 400 mg tablet, Example 2
[10] = 1.0% (w/w) regular APAP wet-granulated with Formulation A, Example 3
[11] = 10.0% (w/w) APAP as COMPAP with Formulation A granules, Example 4
[12] = 10.0% (w/w) regular APAP blended with Formulation A granules, 400 mg tablet, Example 2
[13] = 10.0% (w/w) regular APAP wet-granulated with Formulation A, Example 3
[14] = 15.0% (w/w) regular APAP blended with Formulation A granules, 400 mg tablet, Example 2
[15] = 20.0% (w/w) APAP as COMPAP with Formulation A granules, Example 4
[16] = 20.0% (w/w) regular APAP wet-granulated with Formulation A, Example 3
[17] = 30.0% (w/w) APAP as COMPAP with Formulation A granules, Example 4
[18] = 30.0% (w/w) regular APAP wet-granulated with Formulation A, Example 3
[19] = 40.0% (w/w) APAP as COMPAP with Formulation A granules, Example 4
[20] = 50.0% (w/w) APAP as COMPAP with Formulation A granules, Example 4

CC(=O)Nc1ccc(O)cc1 [APAP, Acetaminophen]
Hardness [1, 5]: 7.9 kP
Hardness [1, 6]: 8.1 kP
Hardness [1, 7]: 8.1 kP
Hardness [1, 8]: 7.6 kP
Hardness [1, 9]: 9.3 kP
Hardness [1, 10]: 8.6 kP
Hardness [1, 11]: 8.0 kP
Hardness [1, 12]: 6.5 kP
Hardness [1, 13]: 8.5 kP
Hardness [1, 14]: 6.8 kP
Hardness [1, 15]: 9.1 kP
Hardness [1, 16]: 7.5 kP
Hardness [1, 17]: 7.2 kP
Hardness [1, 18]: 7.9 kP
Hardness [1, 19]: 5.7 kP
Hardness [1, 20]: 4.2 kP
Friability [2, 5]: 0.5%
Friability [2, 6]: 0.02%
Friability [2, 7]: 0.3%
Friability [2, 8]: 0.3%
Friability [2, 9]: 0.03%
Friability [2, 10]: 0.2%
Friability [2, 11]: 0.5%
Friability [2, 12]: 0.46%
Friability [2, 13]: 0.0%
Friability [2, 14]: 0.08%
Friability [2, 15]: 0.0%
Friability [2, 16]: 0.2%
Friability [2, 17]: 0.5%
Friability [2, 18]: 0.0%
Friability [2, 19]: 0.0%
Friability [2, 20]: 0.3%
USP-DIT (in vitro disintegration time, USP method) [3, 5]: 26 s
USP-DIT (in vitro disintegration time, USP method) [3, 6]: 18 s
USP-DIT (in vitro disintegration time, USP method) [3, 7]: 12 s
USP-DIT (in vitro disintegration time, USP method) [3, 8]: 15 s
USP-DIT (in vitro disintegration time, USP method) [3, 9]: 20 s
USP-DIT (in vitro disintegration time, USP method) [3, 10]: 12 s
USP-DIT (in vitro disintegration time, USP method) [3, 11]: 11 s
USP-DIT (in vitro disintegration time, USP method) [3, 12]: 9 s
USP-DIT (in vitro disintegration time, USP method) [3, 13]: 18 s
USP-DIT (in vitro disintegration time, USP method) [3, 14]: 10 s
USP-DIT (in vitro disintegration time, USP method) [3, 15]: 11 s
USP-DIT (in vitro disintegration time, USP method) [3, 16]: 19 s
USP-DIT (in vitro disintegration time, USP method) [3, 17]: 16 s
USP-DIT (in vitro disintegration time, USP method) [3, 18]: 28 s
USP-DIT (in vitro disintegration time, USP method) [3, 19]: 16 s
USP-DIT (in vitro disintegration time, USP method) [3, 20]: 16 s
Wetting time [4, 5]: 15 s
Wetting time [4, 6]: 12 s
Wetting time [4, 7]: 18 s
Wetting time [4, 8]: 16 s
Wetting time [4, 9]: 11 s
Wetting time [4, 10]: 21 s
Wetting time [4, 11]: 22 s
Wetting time [4, 12]: 10 s
Wetting time [4, 13]: 30 s
Wetting time [4, 14]: 9 s
Wetting time [4, 15]: 30 s
Wetting time [4, 16]: 25 s
Wetting time [4, 17]: 45 s
Wetting time [4, 18]: 21 s
Wetting time [4, 19]: 65 s
Wetting time [4, 20]: 117 s
